Like-named read-outs stand apart in the source and are kept apart here.
Key:
HER2.CAR T cells = test: Expansion of HER2.CAR T cells with IL-2 under repeated TMZ treatment (cell counts every three days); type: cell-based; conditions: 100 μM TMZ, retreated every three days, 100 U/ml IL-2; n=4 donors; p<0.05
Procedure: 1×10^6 HER2.CAR T cells were plated on day 1 with 100 U/ml of IL-2 and treated with 100 μM TMZ. Every three days, the T cells were counted, given fresh IL-2, and retreated with TMZ.
To do this, 1×10^6 HER2.CAR T cells were plated with 100 U/ml of IL-2 and treated with 100 μM TMZ (day 1). Every three days, the T cells were counted, given fresh IL-2, and re-treated with TMZ.

[1] = system: glioblastoma multiforme (GBM); conditions: cited from earlier work; for median overall survival: GBM patients receiving TMZ
U373.eGFP.FFLuc cells = test: Coculture of U373.eGFP.FFLuc tumor cells with T cells with or without TMZ, tumor killing by fluorescence microscopy; type: cell-based; conditions: TMZ with non-transduced (NT) T cells
Procedure: Tumor killing was evaluated by fluorescence microscopy.
Both TMZ and HER2.CAR T cells have anti-GBM activity on their own; however, it is unknown whether combining the agents provides additional benefit.

Q: Which results are given for `Cn1nnc2c(C(N)=O)ncn2c1=O` [TMZ, 3-methyl-4-oxo-3H,4H-imidazo[4,3-d][1,2,3,5]tetrazine-8-carboxamide]?
A: effect of TMZ on T-cell expansion (HER2.CAR T cells): effectively prevented T-cell expansion; median overall survival ([1]; methylated MGMT promoters): 21.7 months; median overall survival ([1]; unmethylated MGMT promoters): 12.7 months; overall survival ([1]; phase III trial, TMZ with radiation therapy vs. radiotherapy alone, GBM patients): significantly improve the overall survival; antitumor activity / tumor killing (U373.eGFP.FFLuc cells): limited antitumor activity

Source: US20160024175A1, “CHEMOTHERAPY-RESISTANT IMMUNE CELLS” (priority 2013, published 2016)
